Laboratory results published in patent publication US5147855A, “Conjugates of VIP and active fragments thereof with hydrophobic moieties and topical compositions for male impotence” (Yeda Research and Development Co. Ltd., priority 1988, dated 1992).
Values joined by “and” are separate entries in the source; they are usually repeats but may differ in a detail not shown here. Equal values may be shown once. No end group written: not given here. NH = not defined here; oleyl = oleyl moiety

Tests used:
penile erection = conditions: injection; cited from earlier work
[1] = test system: sexual behaviour of male rats; assay: Sexual behaviour of male rats after topical application of ointment (Table IV); type: in vivo; conditions: ointment applied onto the rat's penis
Excerpt: (§1) The animal model -- All tested rats (Wistar derived from the departmental colony, Hormone Research Department, at the Weizmann Institute of Science), are sexually experienced male rats around 3 months of age (body weight ~250 g). At this age, the rats are castrated by removal of the testes and injected daily with testosterone for at least 14 consecutive days.
(§2) All rats (males and females) that take part in the experiment are kept in a 12-hour light 12-hour dark cycle. Prior to testing, each male is put in a separate cage for at least 1 hour. A sexually receptive female is introduced to each male. Females were tested for their receptivity by vaginal smearings. The latencies of mounts and intromissions are recorded. […] Using castrated animals we achieved decreased sexual activity which is expressed by longer intervals between intromissions and less intromissions during the 15 min observation periods.
Preparation of Ointment -- Lanolin (1 g), water (3 g) DMSO (7 drops) and 10 mg of stearyl-VIP were manually homogenized in a mortar. An amount of paste, containing 30-50 μg peptide was applied onto the rat's penis and sexual behaviour, following the methodology previously described, was monitored.
(B) Using the same protocol as in (A) an ointment of VIP-oleyl was prepared and tested.

[2] = test system: sexual behaviour of male rats; assay: Sexual behaviour of castrated male rats, topical application of several materials (Table III); type: in vivo, rat; design: key to Ejaculations (E): E = Ejaculations; conditions: for Ejaculations (E) / No. Ob. / Int. Latency: individual rats; for No. Ob. / Int. Latency: castrated 14 days earlier, testosterone 4 μg/100 g BW daily; for Int. Latency: in s
Excerpt: as §1
All rats (males and females) that take part in the experiment are kept in a 12-hour light 12-hour dark cycle. Prior to testing, each male is put in a separate cage for at least 1 hour. A sexually receptive female is introduced to each male. Females were tested for their receptivity by vaginal smearings. The latencies of mounts and intromissions are recorded.
6 rats, 120 days old, sexually experienced, were tested. The rats were castrated 14 days earlier and were injected with 4 μg/100 g BW of testosterone daily. […] All 6 materials were tested by topical application.

[3] = test system: sexual behaviour of male rats; assay: Sexual behaviour of castrated male rats after topical application in DMSO (Table II); type: in vivo, rat; design: key to Ejaculations (E): E = Ejaculations; conditions: for Effect on sexual activity (words): compared with DMSO control
Excerpt: as §1, §2
As we have obtained positive results with stearyl-VIP by injection we have now developed a topical application method. This was achieved by mixing 20 μl of 1 μg/ml VIP-stearyl with 10 μl dimethyl sulfoxide (DMSO) and direct topical application on the sex organ.
Rats were castrated and injected daily for 16 consecutive days with testosterone at 2 μg/100 g BW. Testing was performed by topical application of stearyl-VIP-20 μg/20 μl mixed with 10 μl DMSO and compared to topical application of 30 μl DMSO.

[4] = test system: sexual behaviour of male rats; assay: Sexual behaviour of castrated, testosterone-treated male rats after intravenous injection (Table I); type: in vivo, rat; design: key to Ejaculations (E): E = Ejaculations
Excerpt: as §1, §2
Initially, we tested a few VIP analogs by injection (intravenously 5-10 μg/animal). As a control we injected saline at identical volumes (5-10 μl).
Rats were castrated and injected daily for 15 consecutive days with testosterone at 4 μg/100 g body weight (BW). Tests were performed with stearyl-VIP or VIP at 10 μg/animal.

[5] = individual castrated rats, testosterone 4 μg/100 g BW daily 15 days, injection 10 μg/animal, listed as VIP stearyl

In the case of CC(COc1ccccc1)N(CCCl)Cc1ccccc1 (stereo not drawn) [phenoxybenzamine], the Erection (penile erection) is listed as “Erection was also obtained”.

In the case of “VIP-oleyl: VIP coupled to an oleyl moiety, tested as an ointment (HSDAVFTDNYTRLRKQMAVKKYLNSILN-{NH-oleyl}; ends and bridges not checked; UniProt P01282 125-152, looked up)”, the “Decrease (shortening) in intromission latency” value [1] is reported as ~ 10% and the Increase in ejaculations [1] is reported as “increased, though much less than stearyl-VIP”.

With CCCCCCCCCCCCCCCCCC(=O)O [Stearic acid, reference compound] the “Ejaculations (E)” value [2] was “E”, the “No. Ob.” value [2] was 19 and 21 and the “Int. Latency” value [2] was 26 ± 1 and 18 ± 3 and 36 ± 2.

For Stearyl-VIP, the “Obs. (number of intromissions)” value ([3]; individual castrated rats, testosterone 2 μg/100 g BW daily 16 days, topical 20 μg/20 μl mixed with 10 μl DMSO) was 21 and 14 and 10 and 3 and 11 and 25, the Intromission latency ([3]; individual castrated rats, testosterone 2 μg/100 g BW daily 16 days, topical 20 μg/20 μl mixed with 10 μl DMSO, in s) was 23 ± 4 and 29 ± 4 and 32 ± 8 and 16 ± 3 and 38 ± 10 and 18 ± 7 and 24 ± 4 and the “Ejaculations (E)” value ([3]; individual castrated rats, topical in DMSO) was “E”. For the same compound, the “Effect on sexual activity (words)” value ([3]; topical in DMSO) was “remarkable sexual arousal”, the “Effect on sexual activity (words)” value ([3]; topical in DMSO, listed as StearylVIP) was “rats B2 and A3 were sexually active only after” and the Intromission latency [4, 5] was 17 ± 3 s and 28 ± 7 s and 50 ± 17 s and 33 ± 6 s and 37 ± 6 s and 56 ± 8 s and 45 ± 7 s. The “Obs. = Number of intromissons per 15 minute test period” value [4, 5] was 7 and 4 and 12 and 20 and 14 and 6, the “Ejaculations (E)” value ([4]; individual castrated rats, injection 10 μg/animal) was “E” and the “Effect on sexual activity (words)” value ([4]; injection) was “potentiates sexual activity in a comparable manner to VIP”. For the same compound, the “Activity upon topical application” value [2] was “the most active analog”, the Change in latency ([2]; 6 rats) was “shortening of latency” and the “Change in number of ejaculations” value ([2]; 6 rats) was “clear increase in the number of ejaculations”. The “Change in number of intromissions” value ([2]; 6 rats) was “increase in number of intromissions”, the “Ejaculations (E)” value [2] was “E” and the “No. Ob.” value [2] was 6 and 28 and 20 and 49 and 31. For the same compound, the “Int. Latency” value [2] was 66 ± 15 and 18 ± 3 and 18 ± 2 and 12 ± 3 and 26 ± 1, the “Decrease (shortening) in intromission latency” value [1] was “about 25%” and the Increase in ejaculations [1] was “two-fold”.
